Measured values from article PMC4747952, “Development of TASP0410457 (TASP457), a novel dihydroquinolinone derivative as a PET radioligand for central histamine H3 receptors” (EJNMMI Research, 2016).

Tests used:
[1] = set-up: method as in K. Kawamura, personal communication, 2015; details: mice; 30 min after intravenous injection; pilot assays; ref K. Kawamura, personal communication, 2015; cited from earlier work
H3Rs = experiment: In vitro autoradiography, monkey brain sections; format: binding, rhesus monkey; details: in the presence of 10 μM of unlabelled TASP0410457 or ciproxifan
Procedure: Twenty-micrometer-thick sagittal rat and monkey brain sections were incubated in an autoradiography buffer containing 5 nM [^11C]TASP0410457 as described in Additional file 1: Supplemental methods. The binding was also performed in the presence of 10 μM of unlabeled TASP0410457, thioperamide, or ciproxifan for the rat sections and 10 μM of TASP0410457 or ciproxifan for the monkey sections to assess the specific radioligand binding.
(25:75) at a flow rate of 1 mL/min. A representative chromatogram of [11C]TASP0390136 is shown in […]
Twenty-micrometer-thick sagittal rat brain sections were pre-incubated with autoradiography buffer (50 mM Tris containing 120 mM NaCl, 2 mM KCl, 1 mM MgCl2, and 1 mM CaCl2, pH7.4) for 30 min, then incubated in the autoradiography buffer containing 5 nM [11C]TASP0410457 at 25°C for 1 h. The sections were washed two times with ice-cold autoradiography buffer for 5 min, rinsed with ice-cold water for 10 s, and then quickly dried. The radioactivity retained on the sections was determined using a BAS imaging plate and the BAS5000 system (GE Healthcare, Piscataway, NJ). For a blocking study, brain slices were reacted with [11C]TASP0410457 in the presence of […] of TASP0410457, thioperamide, or ciproxifan.
Similarly, autoradiography using […] sagittal rhesus monkey brain sections was conducted. […]

H3R = target: T1, H3R (Rattus norvegicus, UniProt Q9QYN8); experiment: PET imaging of rat brains; format: in vivo; details: for cerebellar SUV at 15 min after radioligand injection: mean ± S.D.
T1 construct: from tissue; host or cells: brain of living Sprague-Dawley rats
Procedure: Six-week-old male Sprague-Dawley rats were purchased from Japan SLC (Shizuoka, Japan). PET scans were performed using a microPET Focus 220 small-animal scanner (Siemens Medical Solutions USA, Knoxville, TN). The rats were anesthetized with 1.5–2 % isoflurane during the imaging session, while their heart rate and blood oxygen saturation were monitored by pulse oximeter (CANL-425SVA; Med Associates, St. Albans, VT). Body temperature was kept at 37 °C with a heating pad (BWT-100; Bio Research Center, Aichi, Japan). Following the transmission scans for attenuation correction using a ^68Ge-^68Ga point source, emission scans were performed for 90 min in 3D list-mode with an energy window of 350–750 keV, immediately after the intravenous injection of each radioligand. Mean ± S.D. of the injected radioactivity of [^11C]TASP0410457, [^11C]TASP0434988, and [^11C]TASP0390136 was 119 ± 26 MBq, 132 ± 34 MBq, and 124 ± 17 MBq, respectively (n = 3–5). Mean ± S.D. of the mass doses of [^11C]TASP0410457, [^11C]TASP0434988, and [^11C]TASP0390136 was 2.4 ± 1.2 μg/kg, 1.9 ± 0.4 μg/kg, and 4.2 ± 1.6 μg/kg, respectively (n = 3–5).
To assess the specificity of radioligand binding, thioperamide was injected intravenously at a dose of 10 mg/kg at 30 s before the injection of each radioligand.
All list-mode data were sorted into 3D sinograms, which were then Fourier rebinned into 2D sinograms (frames: 1 min × 4, 2 min × 8 and 5 min × 14). Images were reconstructed using 2D-filtered back-projection with a 0.5-mm Hanning filter.
PET image and magnetic resonance imaging (MRI) template were co-registered using PMOD software (PMOD version 3.206; Zurich, Switzerland) according to the following procedure as in our previous works: Outline of the whole brain and positions of eyes in PET images at an early phase of the scan were initially matched to those in MRI images, and then further translations and rotations of PET images were manually performed for fine alignments. Finally, parameters for the co-registration were applied to the entire dynamic PET data. Regions of interest (ROIs) were placed on the striatum, hippocampus, and cerebellum using PMOD software with reference to the MRI template as described elsewhere. The tissue time-activity curves (TACs) for these ROIs were generated by calculating the SUV for each time frame as follows: SUV=radioactivityBq/g×bodyweightg/injectedradiotracerdoseBq
The binding potentials relative to the non-displaceable uptake (BPND) in the striatum and hippocampus were estimated using the simplified reference tissue model (SRTM) with PMOD software using the cerebellum as a reference region, as the rat cerebellum is devoid of H3R [26].

[2] = set-up: method as in earlier work; details: humans; at 30 min; ref Kimura et al., manuscript submitted to Eur J Nucl Med Mol Imaging; cited from earlier work
[3] = SRTM, cerebellum as reference region

T1 sequence (Q9QYN8 whole entry): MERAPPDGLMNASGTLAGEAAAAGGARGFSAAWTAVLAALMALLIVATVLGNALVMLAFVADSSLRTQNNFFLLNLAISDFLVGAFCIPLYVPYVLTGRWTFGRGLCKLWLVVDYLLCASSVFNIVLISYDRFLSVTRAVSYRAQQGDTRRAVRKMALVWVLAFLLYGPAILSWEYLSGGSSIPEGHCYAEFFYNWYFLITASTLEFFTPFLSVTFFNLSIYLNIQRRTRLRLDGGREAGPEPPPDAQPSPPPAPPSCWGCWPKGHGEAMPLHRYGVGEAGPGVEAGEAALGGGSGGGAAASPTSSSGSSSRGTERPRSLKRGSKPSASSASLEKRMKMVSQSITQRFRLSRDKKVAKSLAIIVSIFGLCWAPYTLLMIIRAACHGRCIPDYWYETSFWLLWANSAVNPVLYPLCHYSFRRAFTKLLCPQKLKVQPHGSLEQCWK

- binding in the monkey cerebellum and brainstem under blockade (H3Rs): noticeably decreased
- BPND, Hippocampus (H3R; [3]): 0.53 ± 0.06
- BPND, Striatum (H3R; [3]): 1.26 ± 0.12
- cerebellar SUV at 15 min after radioligand injection (H3R; baseline): 0.64 ± 0.13
- peak SUV, cerebellum (H3R; bolus intravenous, baseline): ~1.2
- peak SUV, hippocampus (H3R; bolus intravenous, baseline): around 1.5
- peak SUV, striatum (H3R; bolus intravenous, baseline): ~2.0
- time for specific binding to reach a pseudo-equilibrium state (H3R; target-to-reference ratios, after intravenous injection): ≤ 15 min
- cerebellar SUV at 15 min after radioligand injection (H3R; thioperamide predosing 10 mg/kg): 0.47 ± 0.09
Compound: [11CH3]Oc1ccc(N2C(=O)CCc3cc(OC4CCN(C5CCC5)CC4)ccc32)cn1 [[^11C]TASP0410457]
- metabolite share of radioactivity in the brain [1]: approximately 50%
- share of total plasma radioactivity arising from the metabolite [2]: 13%
